Source: patent publication US4413007A, “Pesticidal symmetrical N-substituted bis-carbamoyloximino disulfide compounds” (priority 1978, dated 1983)

How the values were obtained:
[1] = tested on: bean aphid (Aphis fabae Scop.); assay: Bean Aphid Foliage Spray Test; type: in vivo; design: key: A: excellent control; B: partial control; C: no control; conditions: 500 ppm, 24 hour holding period
Experimental: (§1) Suspensions of the test compounds were prepared by dissolving one gram of compound in 50 milliliters of acetone in which had been dissolved 0.1 gram (10 percent of the weight of compound) of an alkylphenoxy polyethoxyethanol surfactant, as an emulsifying or dispersing agent. The resulting solution was mixed into 150 milliliters of water to give roughly 200 milliliters of a suspension containing the compound in finely divided form. The thus-prepared stock suspension contained 0.5 percent by weight of compound. The test concentrations in parts per million by weight employed in the tests described hereinbelow were obtained by appropriate dilutions of the stock suspension with water. The test procedures were as follows:
Adults and nymphal stages of the bean aphid (Aphis fabae Scop.) reared on potted dwarf nasturtium plants at 65°-70° F. and 50-70 percent relative humidity, constituted the test insects. For testing purposes, the number of aphids per pot was standardized to 100-150 by trimming plants containing excess aphids.
The test compounds were formulated by diluting the stock suspension with water to give a suspension containing 500 parts of test compound per million parts of final formulation.
The potted plants (one pot per compound tested) infested with 100-150 aphids, were placed on a revolving turntable and sprayed with 100-110 milliliters of test compound formulation by use of a DeVilbiss spray gun set at 40 psig. air pressure. This application, which tested 25 seconds, was sufficient to wet the plants to run-off. As a control, 100-110 milliliters of a water-acetone-emulsifier solution containing no test compound were also sprayed on infested plants. After spraying, the pots were placed on their sides on a sheet of white standard mimeograph paper which had been previously ruled to facilitate counting. Temperature and humidity in the test room during the 24 hour holding period were 65°-70° F. and 50-70 percent, respectively. Aphids which fell onto the paper and were unable to remain standing after being uprighted were considered dead. Aphids remaining on the plants were observed closely for movement and those which were unable to move the length of the body upon stimulation by prodding were considered dead. Percent mortality was recorded for various concentration levels.
(§2) In these tests the pesticidal activity of the compounds against aphid, mite, Southern Armyworm, Bean Beetle and house fly was rated as follows: […]

[2] = tested on: southern armyworm (Prodenia eridania, (Cram.)); assay: Southern Armyworm Leaf Spray Test; type: in vivo; design: key: A: excellent control; B: partial control; C: no control; conditions: 500 ppm, three days
Experimental: as §1
Larvae of the southern armyworm (Prodenia eridania, (Cram.)), reared on Tendergreen bean plants at a temperature of 80±5° F. and a relative humidity of 50±5 percent, constituted the test insects.
The test compounds were formulated by diluting the stock suspension with water to give a suspension containing 500 parts of test compound per million parts of final formulation. Potted Tendergreen bean plants of standard height and age were placed on a revolving turntable and sprayed with 100-110 milliliters of test compound formulation by use of a DeVilbiss spray gun set at 10 psig air pressure. This application, which tested 25 seconds, was sufficient to wet plants to run-off. As a control, 100-110 milliliters of a water-acetone-emulsifier solution containing no test compound were also sprayed on infested plants. When dry, the paired leaves were separated and each one was placed in a 9 centimeter Petri dish lined with moistened filter paper. Five randomly selected larvae were introduced into each dish and the dishes were closed. The closed dishes were labeled and held at 80°-85° F. for three days. Although the larvae could easily consume the whole leaf within twenty-four hours, no more food was added. Larvae which were unable to move the length of the body, even upon stimulation by prodding, were considered dead. Percent mortality was recorded for various concentration levels.
as §2

[3] = tested on: house flies (Musca domestica, L.); assay: Fly Bait Test; type: in vivo; design: key: A: excellent control; B: partial control; C: no control; conditions: 500 ppm in sugar solution, twenty four hours
Experimental: as §1
Four to six day old adult house flies (Musca domestica, L.) reared according to the specifications of the Chemical Specialities Manufacturing Association (Blue Book, McNair-Dorland Co., N.Y. 1954; pages 243-244, 261) under controlled conditions of 80±5° F. and 50±5 percent relative humidity, were the test insects. The flies were immobilized by anesthetizing with carbon dioxide and twenty five immobilized individuals,males and females, were transferred to a cage consisting of a standard food strainer about five inches in diameter which was inverted over a wrapping-paper-covered surface. The test compounds were formulated by diluting the stock suspension with a 10 percent (by weight) sugar solution to give a suspension containing 500 parts of test compound per million parts of final formulation, by weight. Ten milliliters of the test formulation were added to a souffle cup containing a one-inch square of an absorbent cotton pad. This bait cup was introduced and centered on the blotting paper under the food strainer prior to admitting the anesthetized flies. The caged flies were allowed to feed on the bait for twenty four hours, at a temperature of 80±5° F. and the relative humidity of 50±5 percent.
as §2

[4] = Peroral toxicity to mammals (rat); conditions: in vivo, po, 50 percent mortality, read-out: A.O. Rat (LD50)
Experimental: Certain of these compositions were also evaluated to determine their peroral toxicity to mammals. The animal selected for this experiment was the rat. The test results obtained are expressed in terms of the number of milligrams of compositions per kilogram of weight of the animal required to achieve a mortality rate of 50 percent (LD50).

[5] = tested on: two-spotted mite (Tetranychus urticae Koch); assay: Mite Foliage Spray Test; type: in vivo; design: key: A: excellent control; B: partial control; C: no control; conditions: 500 ppm, six days
Experimental: as §1
Adults and nymphal stages of the two-spotted mite (Tetranychus urticae Koch), reared on Tendergreen bean plants at 80±5 percent relative humidity, were the test organisms. Infested leaves from a stock culture were placed on the primary leaves of two bean plants six to eight inches in height, growing in a two-and-a-half inch clay pot. 150-200 Mites, a sufficient number for testing, transferred from the excised leaves to the fresh plants in a period of twenty four hours. Following the twenty four hour transfer period, the excised leaves were removed from the infested plants. The test compounds were formulated by diluting the stock suspension with water to give a suspension containing 500 parts of test compound per million parts of final formulation. The potted plants (one pot per compound) were placed on a revolving turntable and sprayed with 100-110 milliliters of test compound formulation by use of a DeVilbiss spray gun set at 40 psig. air pressure. This application, which lasted 25 seconds, was sufficient to wet the plants to run-off. As a control, 100-110 milliliters of a water solution containing acetone and emulsifier in the same concentrations as the test compound formulation, but containing no test compound, were also sprayed on infested plants. The sprayed plants were held at 80±5 percent relative humidity for six days, after which a mortality count of motile forms was made. Microscopic examination for motile forms was made on the leaves of the test plants. Any individual which was capable of locomotion upon prodding was considered living.
as §2

Structure (SMILES)	Bean Aphid control rating [1]	Southern Armyworm control rating [2]	House-Fly control rating [3]	LD50 [4]	2-Spotted Mite control rating [5]
CN(SSN(C)C(=O)ON=C1CSCCS1)C(=O)ON=C1CSCCS1 [N,N'-Bis-[1,4-Dithiane-2-O-(N-methylcarbamoyl)oximino]disulfide]	A	A	A	160 mg/kg	A
CC(=NOC(=O)N(C)SSN(C)C(=O)ON=C(C)SCCC#N)SCCC#N [N,N'-Bis-[1-(2-Cyanoethylthio)acetaldehyde O-(N-methylcarbamoyl)oxime]disulfide]	A	A	A	80 mg/kg	A
CSC(C)=NOC(=O)N(C)SSN(C)C(=O)ON=C(C)SC [N,N'-Bis-[1-Methylthioacetaldehyde O-(N-methylcarbamoyl)oxime]disulfide]	A	A	A	190 mg/kg	C
